Tests used:
[1] = system: Escherichia coli ATCC 35218; assay: Etest strip MIC, deposition of the sample in droplets along the strip; type: cell-based
[2] = system: Escherichia coli ATCC 25922; assay: Etest strip MIC, sample deposited by smearing with a filtration sampling tool along two axes; type: cell-based; details: smear deposition, incubated at 35° C., shadowgraphy images from 3 h 30; visual examination at 6 h 30 confirms
Description: A third method of implementation of the invention is illustrated by FIGS. 11a, 11b and 12. In this method, the sample is deposited by smearing on the surface of the culture medium (e.g. agar in a Petri dish with a diameter greater than or equal to 9 cm) by means of a sampling tool such as described in the international application published under the number WO2012/083150. Such an integrated device makes it possible to carry out one or more filtration steps and also to transfer a liquid sample. Said device comprises a tubular portion, one of the ends of which is covered with a filtration material such as a membrane, said filtration material being arranged outside this end and covering it totally. The other end of the tubular portion is able to be connected to a suction or dispensing means such as a vacuum pump. The benefit of using such a tool especially being able to estimate the MIC of a sample originating from a positive blood culture bottle, that is to say one which has a result confirming the presence of microorganisms after a given incubation time. For this purpose, the sample may especially be prepared by taking off a volume of the positive blood culture, carrying out a step of lysis, for example chemical lysis, of the blood cells of the volume taken off, then by carrying out filtration of the lysed volume by suction at the surface of a membrane. […]

Substance: gentamicin
- MIC ([1]; Table 2, droplet, ATCC 35218, 0.01 McF, 4 H): 1.3 µg/mL
- MIC ([1]; Table 2, droplet, ATCC 35218, 0.01 McF, 5 H): 1.3 µg/mL
- MIC ([1]; Table 2, droplet, ATCC 35218, 0.1 McF, 4 H): 2 µg/mL
- MIC ([1]; Table 2, droplet/replicate 2, ATCC 35218, 0.5 McF, 4 H): 2 µg/mL
- minimum inhibitory concentration [2]: 1.5 µg/mL

— US10870876B2, “Method for detecting a presence or absence of at least one first zone of inhibition” (BIOMÉRIEUX, priority 2015, dated 2020)
